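All cell lines were grown in 96-well plates and treated with compound for 48 hours. GI50 marks 50% less growth. TGI marks complete inhibition of growth.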
Assays:
Assay in all cases: NCI tumour cell line growth inhibition, 48 h
MCF7 breast = test system: MCF7 breast
NCI/ADR-RES ovarian = test system: NCI/ADR-RES ovarian
T-47D breast = test system: T-47D breast
HS 578T breast = test system: HS 578T breast
MDA-MB-435 = test system: MDA-MB-435

SMILES | GI50 (MCF7 breast) [µM] | TGI (MCF7 breast) [µM] | GI50 (NCI/ADR-RES ovarian) [µM] | TGI (NCI/ADR-RES ovarian) [µM] | GI50 (T-47D breast) [µM] | TGI (T-47D breast) [µM] | GI50 (HS 578T breast) [µM] | TGI (HS 578T breast) [µM] | GI50 (MDA-MB-435) [µM] | TGI (MDA-MB-435) [µM]
COc1ccc(/C=C2/CCOC2=O)cc1 | > 100 | > 100 | > 100 | > 100 | > 100 | > 100 | – | – | – | –
CC(=O)OC1C(O)COC(Oc2c(C)c3c4c(c2O)[C@@H](C)CC[C@@H]4[C@@H](C)C[C@H]3C=C(C)C)C1O (some centres undefined) | 17.2 | > 100 | 15.4 | 32.5 | 39.4 | > 100 | 16.8 | 37.2 | 24 | 67.4
COc1ccc(CNCCCN2C(=O)c3ccc4c5c(ccc(c35)C2=O)C(=O)N(CCCNCCCCNCCCN)C4=O)c(OC)c1OC | 0.355 | 1.62 | 6.01 | 49.7 | 0.335 | 1.88 | 7.52 | 43.4 | 1.17 | 6.57
C=C(C)[C@@H]1CC[C@]2(C)[C@H](CC=C3[C@@H]4CC(C)(C)CC[C@]4(C(=O)OC)CC[C@]32C)[C@@]1(C)CC/C(N)=N/O | 2.13 | 5.3 | 2.09 | 5.42 | 2.46 | 9.77 | 2.02 | 4.97 | 1.78 | 3.65
CCCCCCCCOC(=O)c1cc(O)c(O)c(O)c1 | 4.14 | 26.7 | 1.52 | 10.2 | 2.61 | 21.8 | 2.4 | 22.2 | 1.53 | 16.5
CCOc1ccc2c(-c3ccnc(Nc4cccc(C(F)(F)F)c4)n3)cnn2n1 | 0.979 | > 12.2 | 9.04 | > 25 | 1.4 | > 25 | > 20.2 | > 25 | 9.93 | > 25
O=C1c2ccccc2C(=O)c2c1c(NCCNCCO)c1cc[nH]c1c2NCCNCCO | 1.35 | – | > 100 | > 100 | 11.8 | > 46.5 | 1.93 | 11.1 | 3.03 | 11.9
COc1cc(C)c(N(C)C(=O)CN(C)C)cc1Nc1nc(Nc2cccc(F)c2C(N)=O)c2cc[nH]c2n1 | 2.7 | > 25 | > 25 | > 25 | > 25 | > 25 | > 17.5 | > 25 | > 25 | > 25
COc1ccc(-c2ccc(=O)oc2-c2cc(OC)c(OC)c(OC)c2)cc1O | < 0.01 | > 100 | 0.036 | > 100 | > 100 | > 100 | 0.0275 | > 100 | – | –
O=c1c2ccccc2c(C=NCCNCCO)c2oc3ccccc3n12 | – | – | 13.8 | 26.7 | 4.12 | 17.9 | – | – | 12.3 | 24.7
CN([N-]C(=O)CC(=O)[N-]N(C)C(=S)c1ccccc1)C(=S)c1ccccc1.[Cu+2] | < 0.01 | 0.0284 | < 0.0261 | 0.456 | < 0.01 | 0.101 | 0.0851 | 0.619 | 0.0437 | 0.171
C=C(C)[C@@H]1CC[C@]2(c3ncc(C)o3)CC[C@]3(C)[C@H](CC[C@@H]4[C@@](C)(CCC#N)[C@H](C(=C)C)CC[C@]43C)[C@@H]12 | 2.87 | 10.5 | 3.33 | 11.9 | 3.19 | 15 | 4.3 | 19.4 | 4.87 | 18
COc1cccc(NC(=O)c2ccc(C(F)(F)F)nc2Nc2ccc(Cl)cc2C)c1 | 7.96 | 47.7 | 5.6 | 20.2 | 4.31 | 25.1 | 6.56 | 29.3 | 12.1 | 27.2
N#C/C(=C/c1cccs1)c1cccs1 | > 100 | > 100 | > 100 | > 100 | 51.5 | > 100 | 99.3 | > 100 | > 100 | > 100
CCCN(CCC)c1ccc(C=O)c(OC)c1 | 19.1 | 81.3 | 28.9 | > 100 | 12.5 | 57.5 | 15.5 | 94.4 | 20 | 78.9
CN1CCN(c2ccc3nc(-c4ccc5nc(-c6ccc(C(F)(F)F)cc6)[nH]c5c4)[nH]c3c2)CC1 | 0.578 | 2.19 | 25.7 | > 100 | 1.38 | 3.33 | 2.03 | 4.49 | 1.66 | 3.1
Cc1ccc2nc(NC(=O)CSC(=S)N3CCN(Cc4ccccc4)CC3)sc2c1 | 64.5 | > 100 | > 100 | > 100 | 72.3 | > 100 | > 100 | > 100 | > 100 | > 100
COc1cc2c3c(n(CCCn4cccn4)c(=O)c2cc1OC)-c1cc2c(cc1C3=O)OCO2 | 0.523 | > 55.2 | 1.3 | 16.5 | 2.2 | > 100 | 22.7 | > 90.7 | 6.23 | 39.2
CCCCCn1ncc(-c2c(O)c(O)cc3c(O)c(-c4c(C)cc5c(-c6cnn(CCCCC)n6)c(O)c(O)cc5c4O)c(C)cc23)n1 | 0.0874 | 4.24 | 0.903 | 5.32 | 0.0627 | 1.42 | 0.152 | 8.87 | 0.109 | 5.02
COc1cc([N+](=O)[O-])c(S(=O)(=O)O)cc1-n1nc(-c2ccccc2)n[n+]1-c1cc(S(=O)(=O)[O-])c([N+](=O)[O-])cc1OC | – | > 100 | – | > 100 | – | > 100 | – | > 100 | – | > 100
CCN(CCc1ccc(F)cc1)c1ccc(CO)c(Cl)c1 | 4.72 | 19.9 | 11.8 | 28.1 | 1.39 | 12.7 | 11.5 | 32.4 | 15.6 | 31.8

From PubChem BioAssay (NCI)
